According to US10208015B2, “Aryl-triazolyl pyridines as pest control agents” (BAYER ANIMAL HEALTH GMBH, priority 2014, dated 2019):
Read-outs that look alike come from different tables or passages of the source.

Key:
[1] = logP by HPLC on reversed-phase column (C18), EEC Directive 79/831 Annex V.A8; type: physicochemical; conditions: for logP: HPLC, C18, acetonitrile (0.1% formic acid)/water (0.09% formic acid) gradient
Spodoptera frugiperda = Spodoptera frugiperda spray test; type: in vivo; conditions: application rate 100 g/ha, after 7 days
Method: Spodoptera Frugiperda—Spray Test
(§1) • Solvent: 78.0 parts by weight of acetone • 1.5 parts by weight of dimethylformamide • Emulsifier: alkylaryl polyglycol ether
(§2) To produce a suitable preparation of active compound, 1 part by weight of active compound is dissolved using the stated parts by weight of solvent and made up with water containing an emulsifier concentration of 1000 ppm until the desired concentration is attained. To produce further test concentrations, the preparation is diluted with emulsifier-containing water.
Leaf discs of maize (Zea mays) are sprayed with an active compound preparation of the desired concentration and, after drying, populated with caterpillars of the armyworm (Spodopterafrugiperda).
After 7 days, the efficacy in % is determined. 100% means that all the caterpillars have been killed; 0% means that no caterpillars have been killed.

Boophilus microplus = Boophilus microplus injection test; type: in vivo; conditions: application rate 20 μg/animal, assessed after 7 days
Method: Boophilus microplus—Injection Test • Solvent: dimethyl sulphoxide […] The animals are transferred into dishes and kept in a climate-controlled room. Efficacy is assessed after 7 days by laying of fertile eggs. Eggs which are not visibly fertile are stored in a climate-controlled cabinet until the larvae hatch after about 42 days.

Phaedon cochleariae = Phaedon cochleariae spray test; type: in vivo; conditions: application rate 100 g/ha, after 7 days
Method: Phaedon Cochleariae—Spray Test
as §1, §2
After 7 days, the efficacy in % is determined. 100% means that all the beetle larvae have been killed; 0% means that no beetle larvae have been killed.

Musca domestica = Musca domestica test; type: in vivo; conditions: application rate 100 ppm, adult houseflies, after 2 days
Method: (§3) • Solvent: dimethyl sulphoxide
(§4) To produce a suitable preparation of active compound, 10 mg of active compound are mixed with 0.5 ml of dimethyl sulphoxide, and the concentrate is diluted with water to the desired concentration.
Vessels containing a sponge treated with sugar solution and the active compound preparation of the desired concentration are populated with 10 adult houseflies (Musca domestica).
After 2 days, the kill in % is determined. 100% means that all of the flies have been killed; 0% means that none of the flies have been killed.

Lucilia cuprina = Lucilia cuprina test; type: in vivo; conditions: application rate 100 ppm, L1 larvae, after 2 days
Method: as §3, §4
About 20 L1 larvae of the Australian sheep blowfly (Lucilia cuprina) are transferred into a test vessel containing minced horsemeat and the active compound preparation of the desired concentration.
After 2 days, the kill in % is determined. 100% means that all the larvae have been killed; 0% means that no larvae have been killed.

Ctenocephalides felis = Ctenocephalides felis oral test; type: in vivo; conditions: application rate 100 ppm in citrated cattle blood, after 2 days
Excerpt: Ctenocephalides felis—Oral Test • Solvent: dimethyl sulphoxide […] Dilution with citrated cattle blood gives the desired concentration. About 20 unfed adult cat fleas (Ctenocephalides felis) are placed into a chamber which is closed at the top and bottom with gauze. A metal cylinder whose bottom end is closed with parafilm is placed onto the chamber. The cylinder contains the blood/active compound preparation, which can be imbibed by the fleas through the parafilm membrane.

Tetranychus urticae = Tetranychus urticae spray test, OP-resistant; type: in vivo; conditions: after 6 days
Method: Tetranychus Urticae—Spray Test, OP-Resistant
as §1
To produce further test concentrations, the preparation is diluted with emulsifier-containing water.
After 6 days, the efficacy in % is determined. 100% means that all the spider mites have been killed; 0% means that none of the spider mites have been killed.

[2] = system: Boophilus microplus Parkhurst strain, SP-resistant; assay: Boophilus microplus dip test; type: in vivo; conditions: application rate 100 ppm, assessed after 7 days
Method: Boophilus microplus—Dip Test
• Test animals: cattle ticks (Boophilus microplus) Parkhurst strain, SP-resistant • Solvent: dimethyl sulphoxide
10 mg of active compound are dissolved in 0.5 ml of dimethyl sulphoxide. To produce a suitable formulation, the active compound solution is diluted with water to the concentration desired in each case.
This active compound preparation is pipetted into tubes. 8-10 engorged adult female cattle ticks (Boophilus microplus) are transferred into a further tube with holes. The tube is immersed into the active compound preparation, and all the ticks are completely wetted. After the liquid has run out, the ticks are transferred on filter discs into plastic dishes and stored in a climate-controlled room.
Efficacy is assessed after 7 days by laying of fertile eggs. Eggs which are not visibly fertile are stored in a climate-controlled cabinet until the larvae hatch after about 42 days. An efficacy of 100% means that none of the ticks has laid any fertile eggs; 0% means that all the eggs are fertile.

SMILES | efficacy (laying of fertile eggs) (Boophilus microplus) [%] | efficacy (kill in %) (Musca domestica) [%] | logP [1] | efficacy (kill in %) (Lucilia cuprina) [%] | efficacy (kill in %) (Ctenocephalides felis) [%] | other results
CCc1cc(C(F)(C(F)(F)F)C(F)(F)F)cc(Br)c1N [2-bromo-6-ethyl-4-heptafluoroisopropylaniline] | – | – | – | – | – | log P (HPLC-MS) [1]: 4.38
CCc1cc(C(F)(C(F)(F)F)C(F)(F)F)cc(Cl)c1N [2-chloro-6-ethyl-4-heptafluoroisopropylaniline] | – | – | – | – | – | log P (HPLC-MS) ([1]; HPLC-MS method a)): 4.67
Cc1cc(C(F)(C(F)(F)F)C(F)(F)F)cc(C(F)(F)F)c1N [4-heptafluoroisopropyl-2-methyl-6-trifluoromethylaniline] | – | – | – | – | – | log P (HPLC-MS) ([1]; HPLC-MS method a)): 4.67
COc1ncc(-c2cn(-c3c(Cl)cc(C(F)(C(F)(F)F)C(F)(F)F)cc3Cl)nn2)cc1C(=O)NC1(C#N)CC1 [Example 4] | 100 | 100 | 4.3 | 100 | 100 | efficacy in % (Spodoptera frugiperda): 100%; efficacy in % (Phaedon cochleariae): 100%
COc1ncc(-c2cn(-c3c(C)cc(C(F)(C(F)(F)F)C(F)(F)F)cc3C)nn2)cc1C(=O)NC1(C#N)CC1 [Example 7] | 100 | – | 4.2 | 100 | 100 | efficacy in % (Spodoptera frugiperda): 100%; efficacy in % (Phaedon cochleariae): 100%
COc1ncc(-c2cn(-c3c(Cl)cc(C(F)(C(F)(F)F)C(F)(F)F)cc3Cl)nn2)cc1C(=O)NC1CC1 [Example 10] | 100 | – | 4.4 | 95 | 100 | –
COc1ncc(-c2cn(-c3c(C)cc(C(F)(C(F)(F)F)C(F)(F)F)cc3C)nn2)cc1C(=O)NC1CC1 [Example 11] | 100 | 100 | 4.3 | 100 | 100 | efficacy in % (Spodoptera frugiperda): 100%; efficacy in % (Phaedon cochleariae): 100%; efficacy in % (Tetranychus urticae; application rate 20 g/ha): 90%
CCc1cc(C(F)(C(F)(F)F)C(F)(F)F)cc(C)c1-n1cc(-c2cnc(Cl)c(C(=O)N(C)C3CC3)c2)nn1 [Example 19] | 100 | 80 | 4.6 | 100 | 100 | efficacy (laying of fertile eggs) [2]: 100%
CCc1cc(C(F)(C(F)(F)F)C(F)(F)F)cc(C)c1-n1cc(-c2cnc(Cl)c(C(=O)NC3CC3)c2)nn1 [Example 20] | 100 | – | 4.1 | 100 | 100 | efficacy (laying of fertile eggs) [2]: 100%
Cc1cc(C(F)(C(F)(F)F)C(F)(F)F)cc(Br)c1-n1cc(-c2cnc(Cl)c(C(=O)N(C)C3CC3)c2)nn1 [Example 21] | 100 | 100 | 4.4 | 100 | 100 | efficacy (laying of fertile eggs) [2]: 100%
Cc1cc(C(F)(C(F)(F)F)C(F)(F)F)cc(Br)c1-n1cc(-c2cnc(Cl)c(C(=O)NC3CC3)c2)nn1 [Example 22] | 100 | 100 | 3.9 | 100 | 100 | efficacy (laying of fertile eggs) [2]: 100%
CCc1cc(C(F)(C(F)(F)F)C(F)(F)F)cc(C)c1-n1cc(-c2cnc(Cl)c(C(=O)NCC(F)(F)F)c2)nn1 [Example 23] | 100 | – | 4.5 | 100 | 100 | –
CCc1cc(C(F)(C(F)(F)F)C(F)(F)F)cc(C)c1-n1cc(-c2cnc(Cl)c(C(=O)NC(C)C)c2)nn1 [Example 24] | 100 | – | 4.4 | – | 100 | –
CCNC(=O)c1cc(-c2cn(-c3c(C)cc(C(F)(C(F)(F)F)C(F)(F)F)cc3CC)nn2)cnc1Cl [Example 25] | 100 | 80 | 4.1 | 100 | 100 | efficacy (laying of fertile eggs) [2]: 100%
Cc1cc(C(F)(C(F)(F)F)C(F)(F)F)cc(Br)c1-n1cc(-c2cnc(Cl)c(C(=O)NCC(F)(F)F)c2)nn1 [Example 26] | 100 | 100 | 4.3 | 100 | 100 | –
CCNC(=O)c1cc(-c2cn(-c3c(C)cc(C(F)(C(F)(F)F)C(F)(F)F)cc3Br)nn2)cnc1Cl [Example 27] | 100 | 100 | 3.9 | 100 | 100 | efficacy (laying of fertile eggs) [2]: 100%
O=C(NCC(F)(F)F)c1cc(-c2cn(-c3c(Cl)cc(-c4ccccc4)cc3Cl)nn2)cnc1Cl [Example 28] | 100 | – | 3.9 | – | 100 | –
CC(C)NC(=O)c1cc(-c2cn(-c3c(Cl)cc(-c4ccccc4)cc3Cl)nn2)cnc1Cl [Example 29] | 100 | – | 3.8 | – | – | –
CCNC(=O)c1cc(-c2cn(-c3c(Cl)cc(-c4ccccc4)cc3Cl)nn2)cnc1Cl [Example 30] | 100 | – | 3.5 | 100 | 100 | –
CN(C(=O)c1cc(-c2cn(-c3c(Cl)cc(-c4ccccc4)cc3Cl)nn2)cnc1Cl)C1CC1 [Example 31] | 100 | – | 4.0 | 100 | 100 | –
O=C(NC1CC1)c1cc(-c2cn(-c3c(Cl)cc(-c4ccccc4)cc3Cl)nn2)cnc1Cl [Example 32] | 100 | – | 3.5 | 100 | 100 | –
O=C(NC1CC1)c1cc(-c2cn(-c3c(Cl)cc(C(F)(C(F)(F)F)C(F)(F)F)cc3OC(F)(F)F)nn2)cnc1Cl [Example 33] | 100 | 100 | 4.1 | 100 | 100 | efficacy (laying of fertile eggs) [2]: 100%
N#CC1(NC(=O)c2cc(-c3cn(-c4c(Cl)cc(C(F)(C(F)(F)F)C(F)(F)F)cc4OC(F)(F)F)nn3)cnc2Cl)CC1 [Example 34] | 100 | 100 | 4.0 | 100 | 100 | efficacy in % (Phaedon cochleariae): 100%; efficacy in % (Tetranychus urticae; application rate 100 g/ha): 100%
O=C(NC1CC1)c1cc(-c2cn(-c3c(Cl)cc(C(F)(C(F)(F)F)C(F)(F)F)cc3OC(F)F)nn2)cnc1Cl [Example 36] | – | – | 3.7 | – | – | –
CN(C(=O)c1cc(-c2cn(-c3c(Cl)cc(C(F)(C(F)(F)F)C(F)(F)F)cc3OC(F)F)nn2)cnc1Cl)C1CC1 [Example 37] | – | – | 4.2 | – | – | –
N#CC1(NC(=O)c2cc(-c3cn(-c4c(Cl)cc(C(F)(C(F)(F)F)C(F)(F)F)cc4OC(F)F)nn3)cnc2Cl)CC1 [Example 38] | – | – | 3.7 | – | – | –
